Data published in US20230374038A1, “MODULATORS OF CYSTIC FIBROSIS TRANSMEMBRANE CONDUCTANCE REGULATOR” (VERTEX PHARMACEUTICALS INCORPORATED, priority 2020, published 2023).

Molecular target: CFTR (Homo sapiens, UniProt P13569)
Experiment: Membrane Potential Dye, Enteroid Assay B
Type: cell-based
Settings: for EC50: read-out: Ent. B EC50
In short: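 Human intestinal enteroids seeded at 5000 cells/well, treated with compound 18-24 h at 37 °C, then loaded 25 min with methyl oxonol membrane-potential dye plus CaCC blockers. Chloride transport started in chloride-free buffer with 10 μM forskolin, 100 μM IBMX and 300 nM Compound III, read 15 min; expressed as % of triple-combination control.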

CFTR, sequence (P13569 with tags, fused parts or gaps DEL508-508): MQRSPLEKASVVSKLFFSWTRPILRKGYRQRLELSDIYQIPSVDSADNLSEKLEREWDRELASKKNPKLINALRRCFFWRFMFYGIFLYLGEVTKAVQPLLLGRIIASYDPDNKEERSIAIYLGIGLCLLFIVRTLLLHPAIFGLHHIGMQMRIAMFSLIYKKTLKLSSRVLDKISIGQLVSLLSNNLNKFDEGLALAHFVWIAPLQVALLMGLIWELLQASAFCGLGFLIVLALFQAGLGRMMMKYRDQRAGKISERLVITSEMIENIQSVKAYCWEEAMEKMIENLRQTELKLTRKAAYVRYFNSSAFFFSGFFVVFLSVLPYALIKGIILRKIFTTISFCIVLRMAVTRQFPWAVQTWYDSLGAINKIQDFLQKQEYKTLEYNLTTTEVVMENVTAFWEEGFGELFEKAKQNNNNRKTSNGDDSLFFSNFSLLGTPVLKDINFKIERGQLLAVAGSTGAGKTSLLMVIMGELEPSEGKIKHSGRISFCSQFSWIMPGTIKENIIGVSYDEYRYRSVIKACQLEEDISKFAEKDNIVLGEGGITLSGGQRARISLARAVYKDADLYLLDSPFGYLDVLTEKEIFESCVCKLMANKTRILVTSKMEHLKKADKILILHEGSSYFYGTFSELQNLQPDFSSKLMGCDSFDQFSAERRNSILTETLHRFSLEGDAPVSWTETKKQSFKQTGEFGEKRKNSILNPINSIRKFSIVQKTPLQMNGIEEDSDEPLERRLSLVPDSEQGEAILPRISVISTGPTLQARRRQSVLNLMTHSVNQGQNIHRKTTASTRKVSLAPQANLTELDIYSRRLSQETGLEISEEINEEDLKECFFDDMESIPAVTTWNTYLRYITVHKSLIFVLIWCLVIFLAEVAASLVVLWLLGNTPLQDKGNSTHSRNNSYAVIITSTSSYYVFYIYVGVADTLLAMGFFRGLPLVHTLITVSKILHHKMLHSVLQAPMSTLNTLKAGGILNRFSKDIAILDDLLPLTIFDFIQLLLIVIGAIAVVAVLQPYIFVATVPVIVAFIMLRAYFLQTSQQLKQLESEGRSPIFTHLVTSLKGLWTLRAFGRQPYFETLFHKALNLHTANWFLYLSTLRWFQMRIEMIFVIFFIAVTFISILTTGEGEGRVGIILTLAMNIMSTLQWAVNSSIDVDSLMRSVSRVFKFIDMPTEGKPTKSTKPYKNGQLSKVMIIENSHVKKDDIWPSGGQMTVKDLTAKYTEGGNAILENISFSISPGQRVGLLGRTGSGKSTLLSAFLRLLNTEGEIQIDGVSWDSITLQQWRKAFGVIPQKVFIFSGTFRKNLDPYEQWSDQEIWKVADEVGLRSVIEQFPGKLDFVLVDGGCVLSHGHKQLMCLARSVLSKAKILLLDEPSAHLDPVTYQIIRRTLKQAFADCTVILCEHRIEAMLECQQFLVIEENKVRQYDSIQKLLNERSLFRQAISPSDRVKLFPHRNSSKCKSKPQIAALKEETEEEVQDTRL

| Ent. B Max Activity | EC50 [nM] | SMILES |
| --- | --- | --- |
| +++ (+++ is >60%) | < 1000 | Cc1cccc(C)c1-c1nc2nc(c1C)OC[C@@H](CC(C)C)N(C1CC3(CC3)C1)C(=O)c1cccc(c1)S(=O)(=O)N2 [Compound 75] |
| +++ (+++ is >60%) | < 1000 | Cc1cccc(C)c1-c1nc2nc(c1C)OC[C@@H](CC(C)(C)C)N(C1CC3(CC(N)C3)C1)C(=O)c1cccc(c1)S(=O)(=O)N2 (some centres unmarked) [Compound 96] |
| +++ (+++ is >60%) | < 1000 | Cc1cccc(C)c1-c1nc2nc(c1C)OC[C@@H](CC(C)(C)C)N(C1CC3(CC(N(C)C)C3)C1)C(=O)c1cccc(c1)S(=O)(=O)N2 (some centres unmarked) [Compound 95] |
| +++ (+++ is >60%) | < 1000 | COc1c2nc(nc1-c1c(C)cccc1C)NS(=O)(=O)c1cccc(c1)C(=O)N[C@H](CC(C)C)CO2 [Compound 180] |
| + (+ is <30%) |  | Cc1cccc(C)c1-c1nc2nc(c1-c1cnn(C)c1)OC[C@@H](C)NC(=O)c1cccc(c1)S(=O)(=O)N2 [Compound 146] |
| +++ (+++ is >60%) | < 1000 | [H][C@]1(N2C(=O)c3cccc(c3)S(=O)(=O)Nc3nc(c(C)c(-c4c(C)cccc4C)n3)OC[C@H]2CC(C)(C)C)C[C@@]2(C[C@H](C(C)(C)O)C2)C1 (single isomer, unassigned) [Compound 58] |
| +++ (+++ is >60%) | < 1000 | Cc1cccc(C)c1-c1nc2nc(c1C)OC[C@@H](CC1(C(F)(F)F)CC1)N(C1CC3(CC(NC(=O)OC(C)C)C3)C1)C(=O)c1cccc(c1)S(=O)(=O)N2 (stereo in doubt) [Compound 87] |
| +++ (+++ is >60%) | < 1000 | Cc1cccc(C)c1-c1nc2nc(c1C)OC[C@@H](CC(C)(C)C)N(C1CC3(CC(NC(=O)OC(C)C)C3)C1)C(=O)c1cccc(c1)S(=O)(=O)N2 (single isomer, unassigned) [Compound 65] |
| ++ (++ is 30-60%) | 3000 to 30000 | Cc1cccc(C)c1-c1nc2nc(c1C)OC[C@@H](CCC(C)(C)O)N(CCCC(C)(C)O)C(=O)c1cccc(c1)S(=O)(=O)N2 [Compound 109] |
| +++ (+++ is >60%) | < 1000 | Cc1cccc(C)c1-c1nc2nc(c1CCC(C)(C)C)O[C@H](C)CNC(=O)c1cccc(c1)S(=O)(=O)N2 [Compound 120, (10R)-7-(3,3-Dimethylbutyl)-6-(2,6-dimethylphenyl)-10-methyl-2,2-dioxo-9-oxa-2λ^6-thia-3,5,12,19-tetrazatricyclo[12.3.1.14,8]nonadeca-1(18),4(19),5,7,14,16-hexaen-13-one] |
| +++ (+++ is >60%) | < 1000 | Cc1cccc(C)c1-c1nc2nc(c1C)OC[C@@H](CC1(C(F)(F)F)CC1)N(C1CC3(CC(N(C)C)C3)C1)C(=O)c1cccc(c1)S(=O)(=O)N2 (stereo in doubt) [Compound 91] |
| +++ (+++ is >60%) | < 1000 | COCCN1CCC2(CC1)CC(N1C(=O)c3cccc(c3)S(=O)(=O)Nc3nc(c(C)c(-c4c(C)cccc4C)n3)OC[C@H]1CC(C)C)C2 [Compound 55, (11R)-6-(2,6-Dimethylphenyl)-11-isobutyl-12-[7-(2-methoxyethyl)-7-azaspiro[3.5]nonan-2-yl]-7-methyl-2,2-dioxo-9-oxa-2λ^6-thia-3,5,12,19-tetrazatricyclo[12.3.1.14,8]nonadeca-1(18),4(19),5,7,14,16-hexaen-13-one] |
| +++ (+++ is >60%) | < 1000 | COC(=O)NC1CC2(C1)CC(N1C(=O)c3cccc(c3)S(=O)(=O)Nc3nc(c(C)c(-c4c(C)cccc4C)n3)OC[C@H]1CC1(C(F)(F)F)CC1)C2 (stereo in doubt) [Compound 88] |
| ++ (++ is 30-60%) | < 1000 | Cc1cccc(C)c1-c1nc2nc(c1C)OC[C@@H](CC(C)C)N([C@H]1C[C@@H](OC(C)C)C1)C(=O)c1cccc(c1)S(=O)(=O)N2 (single isomer, unassigned) [Compound 47] |
| +++ (+++ is >60%) | < 1000 | Cc1cccc(C)c1-c1nc2nc(c1C)OC[C@@H](CC(C)(C)O)N(Cc1ccc(C(C)(C)O)cc1)C(=O)c1cccc(c1)S(=O)(=O)N2 [Compound 114] |
| +++ (+++ is >60%) | 3000 to 30000 | Cc1cccc(C)c1-c1nc2nc(c1C)OC[C@@H](CC(C)(C)O)NC(=O)c1cccc(c1)S(=O)(=O)N2 [Compound 105, (11R)-6-(2,6-Dimethylphenyl)-11-(2-hydroxy-2-methyl-propyl)-7-methyl-2,2-dioxo-9-oxa-2λ^6-thia-3,5,12,19-tetrazatricyclo[12.3.1.14,8]nonadeca-1(18),4(19),5,7,14,16-hexaen-13-one] |
| + (+ is <30%) |  | Cc1cccc(C)c1-c1nc2nc(c1C(=O)O)OC[C@@H](CC(C)C)N(C1CC3(CC3)C1)C(=O)c1cccc(c1)S(=O)(=O)N2 [Compound 168, (11R)-6-(2,6-Dimethylphenyl)-11-isobutyl-2,2,13-trioxo-12-spiro[2.3]hexan-5-yl-9-oxa-2λ^6-thia-3,5,12,19-tetrazatricyclo[12.3.1.14,8]nonadeca-1(18),4(19),5,7,14,16-hexaene-7-carboxylic acid] |
| +++ (+++ is >60%) | < 1000 | COC(=O)N1CCC2(CC1)CC(N1C(=O)c3cccc(c3)S(=O)(=O)Nc3nc(c(C)c(-c4c(C)cccc4C)n3)OC[C@H]1CC(C)(C)C(F)(F)F)C2 [Compound 183] |
| +++ (+++ is >60%) | < 1000 | Cc1cccc(C)c1-c1nc2nc(c1C)OC(c1ccc(CC3(C(F)(F)F)CC3)cn1)CN(C)C(=O)c1cccc(c1)S(=O)(=O)N2 (centres unmarked) [Compound 205] |
| +++ (+++ is >60%) | < 1000 | Cc1cccc(C)c1-c1nc2nc(c1C)OC[C@@H](CC(C)(C)C)NC(=O)c1cccc(c1)S(=O)(=O)N2 [Compound 102] |
| +++ (+++ is >60%) | < 1000 | Cc1cccc(C)c1-c1nc2nc(c1C)OC[C@@H](CC1(C(F)(F)F)CC1)N(C1CC3(CCN(C(=O)OC(C)C)CC3)C1)C(=O)c1cccc(c1)S(=O)(=O)N2 [Compound 76] |
| +++ (+++ is >60%) | < 1000 | Cc1cccc(C)c1-c1nc2nc(c1F)OC[C@@H](CC(C)C)N(C1CC3(CC3)C1)C(=O)c1cccc(c1)S(=O)(=O)N2 [Compound 175] |
| ++ (++ is 30-60%) | < 1000 | Cc1cccc(C)c1-c1nc2nc(c1C)OCCN(C1CC3(CC(NC(=O)OC(C)(C)C)C3)C1)C(=O)c1cccc(c1)S(=O)(=O)N2 (centres unmarked) [Compound 37] |
| +++ (+++ is >60%) | < 1000 | Cc1cccc(C)c1-c1nc2nc(c1C)OC[C@@H](CC1(C(F)(F)F)CC1)N(C1CC3(CC(CO)C3)C1)C(=O)c1cccc(c1)S(=O)(=O)N2 (some centres unmarked) [Compound 81] |
| + (+ is <30%) |  | Cc1cccc(C)c1-c1nc2nc(c1C1CCN(C(=O)OC(C)(C)C)CC1)OC[C@@H](C)NC(=O)c1cccc(c1)S(=O)(=O)N2 [Compound 141] |
